Literature values as cited in patent US20100303877A1, “Controlled Release Hydrogel Films” (Board of Regents, The University of Texas System, priority 2009, published 2010).

Tested on: mammalian cells

## [Ag+] [Ag^+, silver ions]
  silver ion concentration above which cytotoxicity occurs: > 10 mg per liter
